This passage reports cytotoxicity and Cell death results from patent US11884647B2, “Compounds and methods for targeting pathogenic blood vessels” (THE REGENTS OF THE UNIVERSITY OF CALIFORNIA, priority 2019, dated 2024).

In test [1] the test system is tumor endothelial cells (CT26.CL25 colon cancer tumor). The test is described as follows: Colon CT26 ex vivo model of tumor angiogenesis. Format: cell-based. Conditions: Mus musculus, CT26, 48 h, read-out: Cell death. The protocol:
This example describes a procedure to prepare a primary tumor angiogenesis model for assessing the efficacy of anti-cancer candidate agents.
1. The day before the experiment, spray all necessary tools with 70% ethanol and sterilize them under UV light overnight, including blade, dissecting and micro-dissecting scissors and […]. Place 24-well dishes at 4° C. to pre-chill plates and thaw Matrigel 24 hours before tumor dissection.
2. Spray 70% ethanol on working bench. Prepare two sterile petri dishes with 10 mL sterile PBS. Steps 3 and 4 are for mouse tumor models. For fresh human tumor, directly go to step 5.
3. Euthanize the tumor-bearing mice. Spray 70% ethanol on the mouse and remove the tumor using sterilized dissecting tools (avoid the fur). Rinse the tumor in petri dish with sterile PBS to remove ethanol and fur. Transfer the tumor to a new petri dish with PBS for dissection. Place the dish on ice.
4. Using pre-chilled sterile pipet tips to seed regular Matrigel in 24 well plates on ice. Matrigel (30 μL) is dropped in the middle of each well without touching the edge of the well (avoid introducing bubbles if possible).
5. Cut the tumor in halves using the sterile blade. Identify and isolate healthy tumor tissue that is not necrotic and is within the tumor capsule. Cut the healthy tumor tissue into small pieces. For instance, a suitable size for the tumor tissue is 0.5 mm (H)×0.5 mm (L)×0.3 mm (D) with a total volume of 0.075 mm^3.
6. Gently transfer and embed each tumor piece in the Matrigel drop in the 24-well plate. Place the embedded piece in the bottom and middle of each Matrigel drop. Keep the plate on ice all the time.
7. After seeding the tumor pieces, plates are incubated in a 37° C. cell culture incubator without medium for 10 minutes in order for the Matrigel to solidify.
8. Endothelial Growth Medium (0.5 mL) is added to each well and incubated at 37° C. with 5% CO2. Wait until the new endothelial cells have grown out of the tumor or are larger than 3 mm in diameter until treatment. This usually takes 4 days for the LL2 Lewis lung cancer model and 7 days for the CT26 colon cancer model. For human tumor models, the growth time is typically 2-3 weeks, depending on the tumor type. Media is changed every 4 days during prolonged culture. Typically, when the tumor tissue grows to 2 mm in diameter, it is good for drug testing. A size of about 3 mm in diameter can make visualization easier.
9. When the assay is ready to be analyzed for cell death (e.g., 48 hours after drug addition), prepare the dye mixture by mixing 6 μL of green dye to stain live cells (5 mg/mL Fluorescein diacetate or FDA in DMSO) with 30 μL of red dye (2.5 mg/mL Propidium iodide or PI in PBS) to stain dead cells in an Eppendorf tube. The FDA dye needs to be stored frozen in a −20° C. freezer because it has a labile ester bond.
10. Add 1 μL of the dye mixture to each well of the 24-well dish. It is usually performed one 24-well dish at a time given the amount of time needed to take pictures (the green dye is not as stable in the cells in the long term).
11. Gently rock the dish a few times to mix the dye with the media in the wells and incubate the dish at 37° C. for 10 min (too long incubation can make the green signal too intense).
12. Wash each well with 0.5 mL of sterile PBS and then add 0.5 mL of phenol red free SFM to each well. Alternatively 0.5 mL of regular Endothelial Cell Growth Media can be added to each well if this well needs to be continuously maintained after the experiment.
13. Look through all wells on an inverted microscope using the 2× objective lens to observe morphological changes.
14. Taking pictures in the red and green channels would allow not only the recording of the result but also more accurate quantitation of the result. To take pictures for all the wells, first pick a well that has robust red and green signals. […]

The subject of test [2] is tumor endothelial cells (LL/2 lung cancer tumor). Kind of test: Lung LL2 ex vivo model of tumor angiogenesis. Format: cell-based, mouse. The following applies: for cytotoxicity at 20 µM / cytotoxicity at 40 µM: Mus musculus, Endothelial cell, 48 h, read-out: Cell death; for Cell death: Lung LL2 ex vivo, Conc. 40 μm, drug treatment two days. A digest of the protocol: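 Read-out is live/dead fluorescence imaging (fluorescein diacetate green, propidium iodide red, 10 min at 37° C) at 2×, taken e.g. 48 h after drug addition. Fragments of mouse LL2 tumor are cultured in Matrigel with endothelial growth medium, usually 4 days, until new endothelial cells grow out, then treated.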

On to `CCCCOc1ccc(S(=O)(=O)c2cnc3ccc(SC)cc3c2N2CCCN(CCN3CCCCC3)CC2)cc1` [compound 206, 3-((4-butoxyphenyl)sulfonyl)-6-(methylthio)-4-(4-(2-(piperidin-1-yl)ethyl)-1,4-diazepan-1-yl)quinoline], for which the cytotoxicity at 40 µM in test [1] came out at 100%. Also, the cytotoxicity at 20 µM in test [2] was found to be 30%.
Take `COc1ccc(S(=O)(=O)c2cnc3ccc(OC(F)(F)F)cc3c2NN2CCN(C)CC2)cc1` [compound 85, 3-((4-methoxyphenyl)sulfonyl)-N-(4-methylpiperazin-1-yl)-6-(trifluoromethoxy)quinolin-4-amine]: the figures for the cytotoxicity at 40 µM in test [1] and in test [2] were 50% and 80%, respectively.
The matching figures for `O=[N+]([O-])c1ccc(S(=O)(=O)c2cnc3ccc(OC(F)(F)F)cc3c2N2CCC(N3CCCCC3)CC2)cc1` [compound 59, 4-([1,4′-bipiperidin]-1′-yl)-3-((4-nitrophenyl)sulfonyl)-6-(trifluoromethoxy)quinoline]: 50% and 40%.
Regarding `CCc1ccc(S(=O)(=O)c2cnc3ccc(OC(F)(F)F)cc3c2N2CCCN(CCN(CC)CC)CC2)cc1` [compound 100, N,N-diethyl-2-(4-(3-((4-ethylphenyl)sulfonyl)-6-(trifluoromethoxy)quinolin-4-yl)-1,4-diazepan-1-yl)ethan-1-amine], the cytotoxicity at 40 µM in test [1] and in test [2] was 100% each time.
On to `CCc1ccc(S(=O)(=O)c2cnc3ccc(OC(F)(F)F)cc3c2N2CCN(c3ccc(C#N)cc3)CC2)cc1` [compound 45, 4-(4-(3-((4-ethylphenyl)sulfonyl)-6-(trifluoromethoxy)quinolin-4-yl)piperazin-1-yl)benzonitrile], for which the cytotoxicity at 40 µM in test [1] turned out to be 0%. In test [2], this compound displayed a Cell death of 10%.
Consider `COc1ccc(S(=O)(=O)c2cnc3ccc(OC(F)(F)F)cc3c2N2CCC(N3CCCCC3)CC2)cc1OC` [compound 56, 4-([1,4′-bipiperidin]-1′-yl)-3-((3,4-dimethoxyphenyl)sulfonyl)-6-(trifluoromethoxy)quinoline], for which the cytotoxicity at 40 µM is 30% in test [1] and 20% in test [2].
As to `CCCCOc1ccc(S(=O)(=O)c2cnc3ccc(S(C)(=O)=O)cc3c2N2CCCN(C)CC2)cc1` [compound 164, 3-((4-butoxyphenyl)sulfonyl)-4-(4-methyl-1,4-diazepan-1-yl)-6-(methylsulfonyl)quinoline], the cytotoxicity at 40 µM in test [1] was found to be 100%; in test [2] it was 95%.
Consider `CCCCOc1ccc(S(=O)(=O)c2cnc3ccc(C(=O)OCC)cc3c2N2CCC(N3CCC(c4ccccc4)CC3)CC2)cc1` [compound 215, ethyl 3-((4-butoxyphenyl)sulfonyl)-4-(4-phenyl-[1,4′-bipiperidin]-1′-yl)quinoline-6-carboxylate], for which the cytotoxicity at 40 µM in test [1] is 20%. In test [2], this compound yielded a Cell death of 30%.
For the compound `CCCCN(CCCC)c1c(S(=O)(=O)c2ccc(OC)c(OC)c2)cnc2ccc(OC(F)(F)F)cc12` [compound 74, N,N-dibutyl-3-((3,4-dimethoxyphenyl)sulfonyl)-6-(trifluoromethoxy)quinolin-4-amine], the cytotoxicity at 40 µM in test [1] was determined as 100%; in test [2], 60%.
Regarding `CCCCOc1ccc(S(=O)(=O)c2cnc3ccc(OC(F)(F)F)cc3c2N2CCC(N3CCCCC3)CC2)cc1` [compound 119, 4-([1,4′-bipiperidin]-1′-yl)-3-((4-butoxyphenyl)sulfonyl)-6-(trifluoromethoxy)quinoline], the cytotoxicity at 20 µM in test [1] was 50%; in test [2], 100%.
Turning to `COc1ccc(S(=O)(=O)c2cnc3ccc(SC)cc3c2N2CCC(N3CCCCC3)CC2)cc1OC` [compound 121, 4-([1,4′-bipiperidin]-1′-yl)-3-((3,4-dimethoxyphenyl)sulfonyl)-6-(methylthio)quinoline], the cytotoxicity at 40 µM worked out at 40% in test [1] and 50% in test [2].
With `CCCCOc1ccc2ncc(S(=O)(=O)c3ccc(OC)c(OC)c3)c(N3CCC(N4CCCCC4)CC3)c2c1` [compound 116, 4-([1,4′-bipiperidin]-1′-yl)-6-butoxy-3-((3,4-dimethoxyphenyl)sulfonyl)quinoline], the figures for the cytotoxicity at 20 µM in test [1] and in test [2] were 50% and 100%, respectively.
As to `CCc1ccc(S(=O)(=O)c2cnc3ccc(OC)cc3c2-n2cncn2)cc1` [compound 79, 3-((4-ethylphenyl)sulfonyl)-6-methoxy-4-(1H-1,2,4-triazol-1-yl)quinoline], the cytotoxicity at 10 µM in test [1] turned out to be 100%. For the same compound, the cytotoxicity at 20 µM in test [2] was 20%.
As to `CCCCOc1ccc(S(=O)(=O)c2cnc3ccc([S+](C)[O-])cc3c2N2CCCN(CCN3CCCC3)CC2)cc1` (stereo not drawn) [compound 210, 3-((4-butoxyphenyl)sulfonyl)-6-(methylsulfinyl)-4-(4-(2-(pyrrolidin-1-yl)ethyl)-1,4-diazepan-1-yl)quinoline], the figures for the cytotoxicity at 40 µM in test [1] and in test [2] were 70% and 50%, respectively.
In the same order, the values of `COc1ccc(S(=O)(=O)c2cnc3ccc(OC(F)(F)F)cc3c2N2CCC(N3CCCCC3)CC2)cc1` [compound 43, 4-([1,4′-bipiperidin]-1′-yl)-3-((4-methoxyphenyl)sulfonyl)-6-(trifluoromethoxy)quinoline] are 90% and 100%.
In the same order, the values of `CCc1ccc(S(=O)(=O)c2cnc3ccc(C(=O)O)cc3c2N2CCC(O)CC2)cc1` [compound 65, 3-((4-ethylphenyl)sulfonyl)-4-(4-hydroxypiperidin-1-yl)quinoline-6-carboxylic acid] are 0% and 10%.
As for `CCCCOc1ccc(S(=O)(=O)c2cnc3ccc(C(=O)OCC)cc3c2N2CCC(N3CCCN(C)CC3)CC2)cc1` [compound 211, ethyl 3-((4-butoxyphenyl)sulfonyl)-4-(4-(4-methyl-1,4-diazepan-1-yl)piperidin-1-yl)quinoline-6-carboxylate], the cytotoxicity at 40 µM in test [1] and in test [2] was 100% throughout.
Turning to `CCCCOc1ccc(S(=O)(=O)c2cnc3ccc(OC(F)(F)F)cc3c2N2CCC(N3CCC(O)CC3)CC2)cc1` [compound 152, 1′-(3-((4-butoxyphenyl)sulfonyl)-6-(trifluoromethoxy)quinolin-4-yl)-[1,4′-bipiperidin]-4-ol], the cytotoxicity at 40 µM in test [1] turned out to be 30%. Besides, the cytotoxicity at 20 µM in test [2] is 20%.
Regarding `CCOC(=O)c1ccc2ncc(S(=O)(=O)c3ccc(CC)cc3)c(-n3cncn3)c2c1` [compound 80, ethyl 3-((4-ethylphenyl)sulfonyl)-4-(1H-1,2,4-triazol-1-yl)quinoline-6-carboxylate], the cytotoxicity at 10 µM in test [1] came to 100%. For the same compound, the cytotoxicity at 20 µM in test [2] is 100%.
On to `CCc1ccc(S(=O)(=O)c2cnc3ccc([N+](=O)[O-])cc3c2N2CCC(O)CC2)cc1` [compound 75, 1-(3-((4-ethylphenyl)sulfonyl)-6-nitroquinolin-4-yl)piperidin-4-ol], for which the cytotoxicity at 40 µM was determined as 0% in test [1] and 80% in test [2].
`CCCCOc1ccc(S(=O)(=O)c2cnc3ccc(OC(F)(F)F)cc3c2NN2CCN(C)CC2)cc1` [compound 92, 3-((4-butoxyphenyl)sulfonyl)-N-(4-methylpiperazin-1-yl)-6-(trifluoromethoxy)quinolin-4-amine]: the cytotoxicity at 40 µM in test [1] was 0%. Also, the cytotoxicity at 20 µM in test [2] was 10%.
